Assay [1] concerns the target D(3) dopamine receptor (Rattus norvegicus, UniProt P19020). Kind of assay: Displacement of [3H]R-(+)-7-OHDPAT from dopamine D3 receptor in Sprague-Dawley rat ventral striatum after 90 mins. A general note: In a radioligand displacement assay an active substance lowers the binding of a labelled ligand.
For assay [2], the target named is D(2) dopamine receptor (Rattus norvegicus, UniProt P61169). As to the kind of experiment: Displacement of [3H]Spiperone from dopamine D2-like receptor in Sprague-Dawley rat caudate putamen after 90 mins. In kind it is tissue-based.
Sequence of D(2) dopamine receptor (Rattus norvegicus, UniProt P61169) (P61169 whole entry): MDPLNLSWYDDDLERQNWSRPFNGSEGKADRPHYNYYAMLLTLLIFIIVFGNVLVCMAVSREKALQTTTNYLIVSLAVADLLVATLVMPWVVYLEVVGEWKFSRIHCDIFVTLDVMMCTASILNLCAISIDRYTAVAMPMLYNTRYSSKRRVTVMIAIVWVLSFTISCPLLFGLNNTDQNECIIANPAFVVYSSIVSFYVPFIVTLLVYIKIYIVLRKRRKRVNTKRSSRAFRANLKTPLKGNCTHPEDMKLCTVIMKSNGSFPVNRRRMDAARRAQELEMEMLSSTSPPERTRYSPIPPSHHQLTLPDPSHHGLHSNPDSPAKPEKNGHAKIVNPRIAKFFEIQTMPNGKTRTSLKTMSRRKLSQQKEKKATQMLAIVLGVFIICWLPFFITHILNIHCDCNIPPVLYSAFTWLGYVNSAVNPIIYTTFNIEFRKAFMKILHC
A short description of assay [3]: Displacement of [3H]SCH 23390 from dopamine D1-like receptor in Sprague-Dawley rat caudate putamen after 90 mins. In kind it is tissue-based.
The species named for assay [4] is Rattus norvegicus. Kind of assay: Selectivity ratio of Ki for dopamine D2-like receptor in Sprague-Dawley rat caudate putamen to Ki for dopamine D3 receptor in Sprague-Dawley rat ventral striatum. In kind it is tissue-based.
The species entered for assay [5] is Rattus norvegicus. As to the kind of experiment: Selectivity ratio of Ki for dopamine D1-like receptor in Sprague-Dawley rat caudate putamen to Ki for dopamine D3 receptor in Sprague-Dawley rat ventral striatum. In kind it is tissue-based.
Assay [6] concerns the target T1, D(3) dopamine receptor (Homo sapiens, UniProt P35462). Conditions: U2OS.
Assay [7] concerns the target D(2) dopamine receptor (Homo sapiens, UniProt P14416). Kind of assay: Displacement of [3H]N-methylspiperone from human dopamine D2 receptor expressed in HEK293 cells after 1 hr by liquid scintillation counting analysis. In kind it is cell-based.
The target of assay [8] is T1, D(3) dopamine receptor. Kind of assay: Displacement of [3H]N-methylspiperone from human dopamine D3 receptor expressed in HEK293 cells after 1 hr by liquid scintillation counting analysis. In kind it is cell-based.
The target in assay [9] is T1, D(3) dopamine receptor.

This note sets out measurements from ChEMBL document CHEMBL3259695 (J Med Chem, 2014).

Sequence of D(3) dopamine receptor (Rattus norvegicus, UniProt P19020) (P19020 whole entry): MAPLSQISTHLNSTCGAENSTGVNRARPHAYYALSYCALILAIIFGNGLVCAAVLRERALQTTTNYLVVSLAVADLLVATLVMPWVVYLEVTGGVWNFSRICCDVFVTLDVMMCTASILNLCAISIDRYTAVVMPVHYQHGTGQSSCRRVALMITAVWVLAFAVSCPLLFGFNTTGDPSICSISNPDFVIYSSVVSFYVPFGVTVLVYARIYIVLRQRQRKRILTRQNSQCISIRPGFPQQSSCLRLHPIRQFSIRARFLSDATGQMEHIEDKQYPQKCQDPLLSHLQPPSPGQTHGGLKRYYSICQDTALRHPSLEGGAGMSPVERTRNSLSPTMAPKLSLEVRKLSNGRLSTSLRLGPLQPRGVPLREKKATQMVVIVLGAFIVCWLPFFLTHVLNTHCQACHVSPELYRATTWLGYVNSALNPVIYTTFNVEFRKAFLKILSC
T1 sequence (P35462 whole entry): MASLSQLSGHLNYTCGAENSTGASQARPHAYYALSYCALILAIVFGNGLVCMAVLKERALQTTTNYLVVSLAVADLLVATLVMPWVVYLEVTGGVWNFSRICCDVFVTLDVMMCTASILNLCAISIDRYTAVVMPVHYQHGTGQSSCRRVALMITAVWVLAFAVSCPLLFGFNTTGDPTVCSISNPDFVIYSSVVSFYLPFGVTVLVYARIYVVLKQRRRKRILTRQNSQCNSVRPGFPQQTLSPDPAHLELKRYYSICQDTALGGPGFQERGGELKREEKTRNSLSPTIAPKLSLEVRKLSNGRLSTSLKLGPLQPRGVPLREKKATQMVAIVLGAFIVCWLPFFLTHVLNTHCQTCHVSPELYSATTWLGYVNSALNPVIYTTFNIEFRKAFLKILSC
Sequence of D(2) dopamine receptor (Homo sapiens, UniProt P14416) (P14416 whole entry): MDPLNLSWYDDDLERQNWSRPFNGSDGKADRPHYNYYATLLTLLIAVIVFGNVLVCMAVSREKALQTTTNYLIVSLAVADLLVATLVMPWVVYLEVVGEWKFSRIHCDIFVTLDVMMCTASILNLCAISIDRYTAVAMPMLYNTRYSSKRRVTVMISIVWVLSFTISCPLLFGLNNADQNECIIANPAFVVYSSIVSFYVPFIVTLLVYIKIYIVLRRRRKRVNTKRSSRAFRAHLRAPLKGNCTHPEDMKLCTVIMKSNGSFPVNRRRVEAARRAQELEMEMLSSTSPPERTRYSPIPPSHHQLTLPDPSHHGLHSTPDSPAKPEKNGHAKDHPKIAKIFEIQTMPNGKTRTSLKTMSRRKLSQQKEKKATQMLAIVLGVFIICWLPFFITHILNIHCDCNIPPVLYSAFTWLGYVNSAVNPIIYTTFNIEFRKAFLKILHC

On to `CCCN(CC[C@]1(O)C[C@@H](NC(=O)c2ccc3ccccc3c2)C1)[C@H]1C[C@@H]1c1ccccc1`, for which the results for the Ki in [1], in assay [2] and in assay [3] were 108 nM, 2140 nM and 3090 nM, respectively. The Ratio Ki in [4] was determined as 20; in [5], 29.

`N[C@@H]1C[C@H]1c1ccccc1.N[C@H]1C[C@@H]1c1ccccc1` (racemic) [TRANYLCYPROMINE] returned an inhibitory constant (Ki) in assay [2] of 58700 nM.

With `CCCN[C@H]1C[C@@H]1c1ccccc1`, the inhibition constant (Ki) in [1] was determined as 1170 nM; in [2], 95600 nM; in [3] it was 123000 nM. Besides, the Ratio Ki in [4] is 82; in [5] it was 105.

Turning to `CCCN[C@@H]1C[C@H]1c1ccccc1`, the figures for the Ki in [1], in [2] and in [3] were 1200 nM, 96600 nM and 90600 nM, respectively. The Ratio Ki in [4] was 81; in assay [5], 76.

Take `CCCN[C@H]1CCc2nc(N)sc2C1`: the ED50 in assay [6] was determined as 3.7 nM.

`CCc1cc(Cl)c(OC)c(C(=O)NC[C@@H]2CCCN2CC)c1O` [ETICLOPRIDE]: affinity in assay [7] was put at a Ki of 0.086 nM.

`CCCN(CC[C@]1(O)C[C@@H](NC(=O)c2ccc3ccccc3c2)C1)[C@H]1C[C@@H]1c1ccccc1Cl` (racemic) returned a Ki in [3] of 743 nM. The Ratio Ki in [4] was 26; in [5] it was 39.

For the compound `CCCN(CC[C@]1(O)C[C@@H](NC(=O)c2ccc3ccccc3c2)C1)C1CC1c1ccc(Cl)cc1` (mixture of isomers), the inhibition constant (Ki) in assay [3] came to 2200 nM.

`CCCN(CC[C@]1(O)C[C@@H](NC(=O)c2ccc3ccccc3c2)C1)[C@@H]1C[C@H]1c1ccccc1`: the Ki in assay [1] amounted to 44 nM; in [2], 1310 nM; in assay [3], 2820 nM. Also, the Ratio Ki in assay [4] was 30; in assay [5], 64.

In the case of `CCN1CCC[C@H]1CNC(=O)c1c(O)c(Cl)cc(Cl)c1OC` [RACLOPRIDE], affinity in assay [8] was put at a Ki of 13.4 nM.

On to `CCCN(CC[C@]1(O)C[C@@H](NC(=O)c2ccc3ccccc3c2)C1)[C@@H]1C[C@H]1c1ccc(Cl)cc1`, for which the inhibition constant (Ki) is 2.7 nM in assay [1]; above 300000 nM in [2]; 25800 nM in assay [3]; 2.8 nM in [8]; 623 nM in assay [7]. Moreover, the IC50 in assay [9] turned out to be 327 nM. The same compound returned an ED50 in [6] above 100000 nM.

Take `CCCN(CC[C@]1(O)C[C@@H](NC(=O)c2ccc3ccccc3c2)C1)[C@H]1C[C@@H]1c1ccc(Cl)cc1`: the Ki in assay [1] was 457 nM; in assay [2] it was above 100000 nM; in [3], 20700 nM.

As for `Cc1ncoc1-c1nnc(SCCCN2CC3CC3(c3ccc(C(F)(F)F)cc3F)C2)n1C` (stereo not drawn), the inhibitory constant (Ki) in assay [1] came to 46 nM; in [3] it was 38800 nM.

`CCCN(CC[C@]1(O)C[C@@H](NC(=O)c2ccc3ccccc3c2)C1)[C@H]1C[C@@H]1c1cccc(Cl)c1` (racemic): the inhibition constant (Ki) was above 300000 nM in assay [2] and 1800 nM in [3]. Besides, in assay [5], the Ratio Ki is 64.

In general, Ki refers to the dissociation constant of the complex between target and ligand, obtained from inhibition or displacement. Read a high Ki as lower affinity. The IC50 is the concentration needed to halve the response being measured.
